Like-named read-outs stand apart in the source and are kept apart here.
Tests used:
[1] = Striatal MPP+ levels by HPLC after MPTP injection; assay type: in vivo, mouse; details: 30 mg/kg MPTP, 90 minutes post injection
Procedure: (§1) Striatal tissue was harvested from dox versus untreated animals 90 minutes following injection of 30 mg/kg MPTP intraperitoneally, immediately immersed in ice cold 0.1 M perchloric acid and sonicated. MPP^+ was measured by HPLC as previously described. Dopamine levels were analyzed in striata dissected two weeks of induction or 24 hrs following MPTP injection post induction by HPLC followed by a 464 pulsed electrochemical detection (Neurochemistry Core, Center for Molecular Neuroscience, Vanderbilt University). Stereological cell counts were performed on immunostained brain sections from brains harvested two weeks after induction using either antibody against tyrosine hydroxylase (TH, Chemicon, 1:500) followed by biotin-labeled secondary antibody and development using DAB (Vector Laboratories). TH^+ cells were counted stereologically throughout the SNpc. Counts for dox removal were performed on brains dissected after removal of dox from the feed for a three week period. Sections were cut at a 40 μm thickness, and every 4th section was counted using a grid of 100×100 μm. Dissector size used was 35×35×12 μm. Neuronal numbers were assessed following NeuN^+ (Chemicon, 1:100) or GABA^+ (Chemicon, 1:1000) immunostaining and astrocytes via GFAP^+ (DAKO, 1:500) and s100-â (DAKO, 1:200) immunostaining. Cells were counted in the SN, striata, and cortex in three independent sections per condition and ten fields per section. […] Dopaminochrome was measured from striatal samples by HPLC as per Ochs et al.
To validate that our transgenic model expresses functionally active MAO-B, we assessed its vulnerability to acute systemic MPTP administration. […] Induced and uninduced transgenic mice and wildtype C57B16 littermates were treated with 30 mg/kg MPTP and striatal MPP levels measured via HPLC (Table 1). […]

[2] = system: ST dopaminergic synaptosomes; assay: H2O2 (DCF fluorescence) in isolated ST dopaminergic synaptosomes; assay type: in vivo, mouse; details: for elevation of H2O2 levels in ST dopaminergic synaptosomes: dox-induced animals co-treated, DCF fluorescence, FIG. 5C
Procedure: (§2) Dopaminergic and non-dopaminergic striatal synaptosomes were isolated using a modified immuno-magnetic protocol. Briefly, synaptosomes were prepared from dissected striatal tissue. Dopaminergic synaptosomes were isolated using magnetic beads conjugated to anti-rabbit IgG (Miltenyi Biotech) after capturing them using a rabbit anti-DAT antibody (Chemicon). Under a magnetic field, bead-bound synaptosomes were passed through a column and washed; flow-through in the presence of the magnetic field yielded a fraction enriched in non-dopaminergic striatal synaptosomes. Elution performed in the absence of the magnetic field yielded fractions enriched in dopaminergic striatal synaptosomes. Equal quantities of various fractions of the synaptosomes isolated using DAT antibody including the starting material or control, the unbound fraction, the flow-through, the wash and the eluate were subjected to western analysis to assess relative dopaminergic versus non-dopaminergic synaptosomal purification. Western blots were performed using antibodies against TH (Chemicon 1:500), GABA (Chemicon, 1:1000) or SNAP-25 as a synaptic protein normalization control (Chemicon, 1:1000). Band densities were quantified using a Chemimager (Alpha Innotech, San Leandro, Calif.). Approximately 94% synaptosomes in the eluate were dopaminergic according to densitometric evaluation of the western blot.
Hydrogen peroxide levels were measured in the striatal dopaminergic and nondopaminergic synaptosomes prepared as above from various groups of mice. Mice were injected in the tail vein with ˜200 μl of DCFDA (Calbiochem) which was freshly diluted 100× with PBS from a stock of 100 mg/ml in DMSO as modified from Andrews et. al.. […] Hydrogen peroxide in the synaptosomes with or without 1 mg/ml catalase for 30 min after preparation was visualized as DCF fluorescence at 488 nm excitation and 512 nm emission in a Spectramax Gemini fluorescence plate reader. The relative fluorescence was normalized to synaptosomal protein which was quantified using the Bradford reagent, Bio-Rad.

mitochondrial complex I = assay: Mitochondrial complex I activity in isolated ST dopaminergic synaptosomes; assay type: in vivo, mouse; details: dox-induced animals co-treated
Procedure: as §2, with “blot. […]” for “blot.”

SN dopaminergic neurons = assay: Mitochondrial superoxide in vivo (Mitosox Red) in SN dopaminergic neurons; design: species or system mouse; details: for increases in mitosox red fluorescence within dopaminergic SN neurons: dox-induced transgenics, co-treatment, FIG. 6; for Mean pixel intensity per cell / Total pixel fluorescence per cell: superoxide (mitosox red) in SN dopaminergic neurons, dox-induced plus co-treatment
Procedure: Mitosox Red (Molecular Probes) was used as an indicator to assess presence of superoxide within cellular mitochondria. 10 μg of Mitosox in 200 μl phosphate-buffered saline was injected into the tail vein of dox-induced transgenics versus controls. Animals were sacrificed 90 minutes later, brains rapidly dissected out and post-fixed overnight in 4% paraformaldehyde. Brains were sectioned at 30 μm using a cryostat. Cellular localization and site of Mitosox Red accumulation in the nigrostriatum was identified by immunofluorescence using anti-TH (Chemicon, 1:500), anti-IBA1 (Wako, 1:500) or anti-GFAP (DAKO, 1:500) antibodies visualized with Fluorescein Avidin D. Mitochondrial localization was confirmed by immunoanalysis using an anti-ATP synthase-specific antibody. Fluorescent imaging was done using a Zeiss LSM510 NLO confocal microscope and images procured using LSM software. Quantification of colocalization and fluorescent intensity was determined using the IMARIS software suite (Bitplane AG, Zurich, Switzerland) on selected cells from multiple sections.

[3] = system: tyrosine hydroxylase positive (TH+) cells in mesencephalic cultures; assay: TH+ dopaminergic cell counts and morphology in dox-induced mesencephalic cultures; assay type: cell-based, mouse; details: 40 μg/ml dox, twelve hours; deprenyl co-treatment (10 μM); FIG. 2A
[4] = Locomotor behavioral assessment (open field, Truscan); assay type: in vivo, mouse; details: induced mice, dox two weeks, deprenyl-treated
Procedure: Locomotor function was assessed using an automated Truscan photobeam apparatus (Colbourne Instruments, Allentown, Pa.) under illumination as previously described. Animals were habituated to the apparatus for 10 min then data collected over a 10-min period followed by analysis using Truscan 99 software. Spontaneous horizontal movement was assessed in both control and dox treated versus untreated transgenic mice via both ambulatory velocity and distance in a 10-min period.

mesencephalic cultures = assay: Extracellular H2O2 in medium of dox-induced mesencephalic cultures (Amplex Red); assay type: cell-based, mouse; details: 10 μM deprenyl, 30 μM EUK189 or 500 nM apocynin, FIG. 4
Procedure: Primary mixed cultures were prepared from the midbrain of 14-day-old mice embryos from MAO-B transgenics and WT controls. Tissue was digested in Neurobasal medium containing 30 U/ml papain and 20 μg/ml DNase at 37° C. for 30 min and mechanically triturated. Dissociated cells were centrifuged at 500×g, resuspended in growth medium (Neurobasal medium supplemented with 10% FBS, 2 mM […], […] supplement without antioxidants, 50 U/ml penicillin, 50 U/ml streptomycin and 50 ng/ml GDNF [57]), and plated on poly-d-lysine-coated 8 well chamber slides (BD-Biocoat) at a density of 10^5 cells per ml. Mixed cultures were grown at 37° C. for 3-5 days before induction with 40 μg/ml doxycycline for 12 hours as per. […] H2O2 in the medium was assayed by Amplex Red per the manufacturer's instructions. Dopaminergic and microglial cell counts were performed following fixation of the cultured cells for 15 min with 4% formaldehyde following by T11^+ (Chemicon) or Iba1^+ (WAKO USA, Richmond, Va.) immunostaining or via uptake of ASP^+ (4-(4-(dimethylamino)styryl)-N-methylpyridinium iodide) (Invitrogen), a fluorescent analogue of dopamine. 10 μM ASP^+ was loaded on to the uninduced or induced cultures in the presence of 20 μM of desipramine to inhibit the norepinephrine transporter which would also take up the dye. ASP^+ fluorescence (red) was visualized in the T11^+ cells after immunostaining with anti-T11 antibody and Alexa fluor 488 conjugated secondary antibody. Averages of manual double blind T11^+ or fluorescent counts of three wells of culture with the same treatment were collected; counts were performed in triplicate.

astroglia = assay: Astrocyte activation by GFAP immunostaining in induced transgenic mice; assay type: in vivo, mouse; details: dox-treated transgenic mice, deprenyl co-treatment
Procedure: as §1, with “Stereological cell counts were performed on immunostained brain sections from brains harvested two weeks after induction using either antibody against tyrosine hydroxylase (TH, Chemicon, 1:500) followed by biotin-labeled secondary antibody and development using DAB (Vector Laboratories).” left out, “Counts for dox removal were performed on brains dissected after removal of dox from the feed for a three week period.” left out, “Dissector size used was 35×35×12 μm.” left out
Immunochemistry was performed on cryosections derived from the SN, striata, and CTX of fixed perfused brains from dox-induced transgenics versus controls. Astrocytic activation was assessed using primary antibodies against GFAP and s100-β. […]

microglia = assay: Microglial activation (Iba1 immunochemistry) in the SN; assay type: in vivo, mouse; details: SN of dox-induced transgenics; FIG. 7B
Procedure: Immunochemistry was performed on cryosections derived from the SN, striata, and CTX of fixed perfused brains from dox-induced transgenics versus controls. Astrocytic activation was assessed using primary antibodies against GFAP and s100-β. Microglial activation was detected using primary antibodies against […] Horse radish peroxidase or avidin-conjugated secondary antibodies were used to detect primary antibodies following either DAB or Fluorescein/Texas Red staining.

[5] = system: Parkinson's disease (PD) patients; details: cited from earlier work; for mortality rate: clinical PD, given after symptoms were present
dopaminergic SN neurons = assay: Stereological TH+ SN cell counts in inducible astrocytic MAO-B transgenic mice; assay type: in vivo, mouse; details: dox-induced transgenic mice; co-treatment i.p. 10-30 mg/kg/day for two weeks; FIG. 3A

| Molecule | loss of CI activity in dopaminergic synaptosomes (mitochondrial complex I) | increases in mitosox red fluorescence within dopaminergic SN neurons (SN dopaminergic neurons) | Mean pixel intensity per cell (SN dopaminergic neurons) | Total pixel fluorescence per cell (SN dopaminergic neurons) | increase in extracellular H2O2 (mesencephalic cultures) | elevation of H2O2 levels in ST dopaminergic synaptosomes [2] | also measured |
| --- | --- | --- | --- | --- | --- | --- | --- |
| C[n+]1ccc(-c2ccccc2)cc1 [MPP+] |  |  |  |  |  |  | Striatal MPP+ levels ([1]; Dox (induced transgenic mice)): 182 ± 3.4 ng/mg protein; Striatal MPP+ levels ([1]; No Dox (uninduced transgenic mice)): 118 ± 2.3 ng/mg protein; Striatal MPP+ levels ([1]; WT (wildtype C57Bl6 littermates)): 100 ± 3.5 ng/mg protein |
| Catalase |  |  |  |  |  |  | DCF fluorescence of dopaminergic synaptosomes from induced animals ([2]; synaptosomes treated with 1 mg/ml catalase for 30 min after preparation): reduced the fluorescence to below uninduced levels |
| C#CCN(C)[C@H](C)Cc1ccccc1 [deprenyl] | attenuated | prevented | 10.2 ± 2.1 | 91,937 ± 19,107 | prevented the increase | preventable | loss in the number of TH+ cells [3]: attenuated; locomotor activity [4]: completely unaffected; astroglial branching (activation) and increased astroglial brain numbers, GFAP (astroglia): inhibited; microglial activation (microglia): prevented; mortality rate [5]: ineffective; mortality rate ([5]; listed as selegiline): no effect; requirement of L-DOPA supplementation ([5]; early stages of symptomatic PD): delayed and reduced |
| CC(=O)O.CCOc1cccc(C=NCCN=Cc2cccc(OCC)c2[O-])c1[O-].[Mn] [EUK-189] | attenuated | prevented | 15.4 ± 4.0 | 126,757 ± 23,798 | prevented the increase | preventable | dopaminergic SN cell loss (dopaminergic SN neurons): attenuated |
| COc1cc(C(C)=O)ccc1O [apocynin] |  |  |  |  | partial reduction |  |  |

Source: patent US20110067123A1, “MAO-B ELEVATION AS AN EARLY PARKINSON'S DISEASE BIOMARKER” (priority 2008, published 2011)
